# Reference: patent US5190921A, “Amino acids and peptides having a modified tyrosine residue, their preparation and their application as medicaments” (Institut National de la Sante et de la Recherche Medicale …, priority 1988, dated 1993)
# *1 amine or outer side, *2 acyl side, *3 side chain or, on linkers, in order; H or OH if unused. Where a SMILES comes first, the peptide text is derived from it. [ ]: non-standard residue; d: D form. The star is where a group is joined. X1 = CCCC[C@@H](NC(=O)CC(=O)*)NC(=O)[C@H](Cc1ccc(CS(=O)(=O)O)cc1)NC(C)=O; Phe(4-CH2SO3H) = N[C@@H](Cc1ccc(CS(=O)(=O)O)cc1)C(=O)O; X2 = O=C([C@@H](Cc1ccc(CS(=O)(=O)O)cc1)N[*:1])[*:2]; sY = N[C@@H](Cc1ccc(OS(=O)(=O)O)cc1)C(=O)O; NMeNle = CCCC[C@H](NC)C(=O)O; Nle = CCCC[C@H](N)C(=O)O; Boc = CC(C)(C)OC(=O)*
# Columns and labels:
# [1] = Enzymatic stability in crude rat brain membranes; type: in vitro ADME; settings: enzymatic degradation in crude rat brain membranes; read-out: 1/2 life time
# Method: The resistance of these analogs to enzymatic degradation was tested in crude rat brain membranes which contain at the same time aminopeptidasic, thiolproteasic and encephalinasic activity [Matsas et al. Febs. Lett. 175, 124 (1984); McDermott et al. Neurochem. Int. 5, 641 (1983)]. These compounds were tested according to the protocol previously described by Durieux et al. Neuropeptides 7, 1, (1986).
# [2] = molecular target: guinea pig pancreatic acini; assay: Pancreatic amylase liberation test; type: cell-based; settings: acini incubated 30 minutes at 37° C.; mean of three experiments in triplicate; read-out: Amylase secretion from guinea pig pancreatic acini, Agonist activity EC50
# Method: Amylase secretion is measured after incubation of pancreatic acini for 30 minutes at 37° C. in the presence of the products under study, according to the experimental protocol described by Peikin et al., Am. J. Physiol., 235 (6), E 743-E 749, (1978). Amylase activity is determined using Phadebas reagent (Pharmacia), according to the method described by Ceska et al., Experientia, 25, 555 (1969). The values indicated in this table represent the mean of three separate experiments, each carried out in triplicate.
# guinea pig ileum = assay: Contraction-producing activity on guinea pig ileum; settings: isolated ileum strips, Tyrode's solution, 37° C.; mean ± s.e.m. of three experiments; read-out: Contraction-producing activity on guinea pig ileum, Agonist activity EC50
# Method: This test is carried out according to the method described by Hutchinson et al., Eur. J. Pharmacol., 69, 87 (1981). Strips from the terminal portion of the guinea pig ileum are rapidly sampled and fixed in the tank of an isometric gauge containing 25 cm^3 of Tyrode's solution. The solution is maintained at 37° C. while passing through it, bubble by bubble, a gas composed of 95% oxygen and 5% CO2. The compounds under study are tested in the conditions described by Ruiz-Gayo et al., Peptides, 6, 415, (1985).
# The values indicated in this table represent the mean (± s.e.m.) of three separate experiments.
SMILES,half-life [1] [h],EC50 [2] [nM],EC50 (guinea pig ileum) [nM]
"CSCC[C@H](NC(=O)[C@H](Cc1ccc(OS(=O)(=O)O)cc1)NC(=O)[C@@H](N)CC(=O)O)C(=O)NCC(=O)N[C@@H](Cc1c[nH]c2ccccc12)C(=O)N[C@@H](CCSC)C(=O)N[C@@H](CC(=O)O)C(=O)N[C@@H](Cc1ccccc1)C(N)=O [CCK8, Asp-Tyr(SO3 H)-Met-Gly-Trp-Met-Asp-Phe-NH2, reference compound]",0.75,–,–
"CCCC[C@H](NC(=O)[C@H](Cc1ccc(CS(=O)(=O)O)cc1)NC(C)=O)C(=O)NCC(=O)N[C@@H](Cc1c[nH]c2ccccc12)C(=O)N[C@@H](CCCC)C(=O)N[C@@H](CC(=O)O)C(=O)N[C@@H](Cc1ccccc1)C(N)=O [Example 13, Ac-L-Phe(p-CH2 SO3 Na)-NLe-Gly-Trp-NLe-Asp-PheNH2] (Ac-[Phe(4-CH2SO3H)][Nle]GW[Nle]DF-NH2)",–,0.33,3.8
"CCCC[C@H](NC(=O)[C@H](Cc1c[nH]c2ccccc12)NC(=O)CNC(=O)[C@H](CCCC)NC(=O)[C@@H](Cc1ccc(CS(=O)(=O)O)cc1)NC(C)=O)C(=O)N[C@@H](CC(=O)O)C(=O)N[C@@H](Cc1ccccc1)C(N)=O [Example 14, Ac-D-Phe(p-CH2 SO3 Na)-NLe-Gly-Trp-NLe-Asp-PheNH2] (Ac-[X2][Nle]GW[Nle]DF-NH2)",–,1.6,18
"CCCC[C@@H](NC(=O)CC(=O)N[C@@H](Cc1c[nH]c2ccccc12)C(=O)N(C)[C@@H](CCCC)C(=O)N[C@@H](CC(=O)O)C(=O)N[C@@H](Cc1ccccc1)C(N)=O)NC(=O)[C@H](Cc1ccc(OS(=O)(=O)O)cc1)NC(=O)OC(C)(C)C [Example 15, Boc-Tyr(SO3 Na)-gNle-mGly-Trp-(N-Me)Nle-Asp(Na)-Phe-NH2]",> 3,0.35,1
"CCCC[C@H](NC(=O)[C@H](Cc1ccc(OS(=O)(=O)O)cc1)NC(=O)OC(C)(C)C)C(=O)NCC(=O)N[C@@H](Cc1c[nH]c2ccccc12)C(=O)N(C)[C@@H](CCCC)C(=O)N[C@@H](CC(=O)O)C(=O)N[C@@H](Cc1ccccc1)C(N)=O [Example 16, Boc-Tyr(SO3 Na)-Nle-Gly-Trp-(N-Me)Nle-Asp(Na)-Phe-NH2] (Boc-[sY][Nle]GW[NMeNle]DF-NH2)",> 4.17,377,> 1000
"CCCC[C@@H](NC(=O)CC(=O)N[C@@H](Cc1c[nH]c2ccccc12)C(=O)N(C)[C@@H](CCCC)C(=O)N[C@@H](CC(=O)O)C(=O)N[C@@H](Cc1ccccc1)C(N)=O)NC(=O)[C@H](Cc1ccc(CS(=O)(=O)O)cc1)NC(C)=O [Example 18, Ac-L-Phe(p-CH2 SO3 Na)-gNle-mGly-Trp-(N-Me)Nle-Asp-Phe-NH2] (X1-W[NMeNle]DF-NH2)",> 4.17,642,> 1000
